EP4707280A1, “1,4-CINEOLE DERIVATIVE AND INTERMEDIATE THEREOF, HERBICIDE CONTAINING SAID DERIVATIVE AS ACTIVE INGREDIENT, METHOD FOR USING HERBICIDE, AND METHOD FOR PREPARING AGROCHEMICAL COMPOSITION” (HOKKO CHEMICAL INDUSTRY CO., LTD., priority 2023, dated 2024)

Key:
Type in all cases: in vivo
Lindernia pyxidaria = experiment: Test Example 2: herbicidal effect test by application during growth period of paddy rice; details: 120 g per 10 ares, applied seven days after sowing, flooded pots, 14 days after application, read-out: weed inhibition rate
In short: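 Paddy soil in flooded pots (water depth about 3 cm) was sown with weed seeds and kept in a glass greenhouse. Seven days after sowing, a diluted emulsifiable concentrate was applied by dropper at 120 g active ingredient per 10 ares. Weed inhibition was evaluated 14 days after application, in duplicate.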

Amaranthus viridis = experiment: Test Example 3: herbicidal effect test by soil application in upland field; details: Amaranthus viridis, 120 g per 10 ares, sprayed one day after sowing, 14 days after application, read-out: weed inhibition rate
In short: (§1)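 Pre-emergence test: seeds mixed into top 1 cm of alluvial loam upland soil in pots; emulsifiable concentrate diluted in water sprayed on soil one day after sowing at 100 L/10 a, 120 g a.i./10 a. Weed inhibition rate (%) scored at 14 days, in duplicate.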

Chenopodium album = experiment: as above; details: 120 g per 10 ares, sprayed one day after sowing, 14 days after application, read-out: weed inhibition rate
In short: as §1

Digitaria ciliaris [1] = experiment: as above; details: Digitaria ciliaris, 120 g per 10 ares, sprayed one day after sowing, 14 days after application, read-out: weed inhibition rate
In short: as §1

Echinochloa crus-galli [2] = experiment: as above; details: Echinochloa crus-galli, 120 g per 10 ares, sprayed one day after sowing, 14 days after application, read-out: weed inhibition rate
In short: as §1

Echinochloa crus-galli [3] = experiment: Test Example 4: herbicidal effect test by stem and leaf treatment in upland field; details: Echinochloa crus-galli; 120 g per 10 ares; sprayed seven days after sowing, upland soil; 14 days after application; read-out: weed inhibition rate
[4] = tested on: Echinochloa crus-galli var. formosensis; experiment: Test Example 5: herbicidal effect test by soil application in paddy rice (low dose); details: Echinochloa crus-galli, soil, 336 h; 7.5 g per 10 ares; applied immediately after sowing, flooded pots; 14 days after application; read-out: weed inhibition rate
In short: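 Paddy-soil pots, weeds sown 0–1 cm deep and flooded to about 3 cm in a greenhouse. Emulsifiable concentrate diluted in water and dropped in right after sowing at 7.5 g active ingredient per 10 ares. Duplicates; effect scored 14 days after application.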

[5] = tested on: Echinochloa crus-galli var. formosensis; experiment: Test Example 6: herbicidal effect test by application during growth period of paddy rice (low dose); details: Echinochloa crus-galli; 7.5 g per 10 ares; applied seven days after sowing, flooded pots; 14 days after application; read-out: weed inhibition rate
In short: (§2)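 Paddy soil in flooded Wagner pots (about 3 cm water), weeds sown at 0–1 cm, 30 seeds each, grown in a glass greenhouse. Seven days after sowing, water-diluted emulsifiable concentrate was dropped into the water at 7.5 g active ingredient per 10 ares. Weed inhibition rate (%) was scored 14 days after application, in duplicate.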

Monochoria vaginalis = experiment: as above; details: Pontederia vaginalis; 7.5 g per 10 ares; applied seven days after sowing, flooded pots; 14 days after application; read-out: weed inhibition rate
In short: as §2

Scirpus juncoides = experiment: as above; details: Schoenoplectiella juncoides; 7.5 g per 10 ares; applied seven days after sowing, flooded pots; 14 days after application; read-out: weed inhibition rate
In short: as §2

Digitaria ciliaris [6] = experiment: Test Example 7: herbicidal effect test by soil application in upland field (low dose); details: Digitaria ciliaris, 7.5 g per 10 ares, sprayed one day after sowing, 14 days after application, read-out: weed inhibition rate
In short: (§3)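 Upland alluvial loam pots, seeds mixed into top 1 cm of soil; one day after sowing, diluted emulsifiable concentrate sprayed on soil at 100 L/10 a, giving 7.5 g active ingredient/10 a. Duplicate pots; weed inhibition rate (%) scored 14 days after application.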

Echinochloa crus-galli [7] = experiment: as above; details: Echinochloa crus-galli, 7.5 g per 10 ares, sprayed one day after sowing, 14 days after application, read-out: weed inhibition rate
In short: as §3

C=C1C[C@]2(C)O[C@@]1(C(C)C)C[C@H]2OCc1ccccc1F [2-88, (1R,4S,5R)-5-((2-fluorobenzyl)oxy)-1-isopropyl-4-methyl-2-methylene-7-oxabicyclo[2.2.1]heptane]
≥ 80%: inhibition at 1200 g/ha (Lindernia pyxidaria) | inhibition at 1200 g/ha (Amaranthus viridis) | inhibition at 1200 g/ha (Chenopodium album) | inhibition at 1200 g/ha (Digitaria ciliaris [1]) | inhibition at 1200 g/ha (Echinochloa crus-galli [2]) | inhibition at 1200 g/ha (Echinochloa crus-galli [3]) | inhibition at 75 g/ha [4] | inhibition at 75 g/ha [5] | inhibition at 75 g/ha (Monochoria vaginalis) | inhibition at 75 g/ha (Scirpus juncoides) | inhibition at 75 g/ha (Digitaria ciliaris [6]) | inhibition at 75 g/ha (Echinochloa crus-galli [7])

C=CCO[C@@H]1C[C@]2(C)O[C@@]1(C(C)C)C[C@H]2OCc1ccccc1F [1-930, (1S,2R,4R,5R)-2-[(2-fluorophenyl)methoxy]-1-methyl-4-isopropyl-5-prop-2-enoxy-7-oxabicyclo[2.2.1]heptane]
≥ 80%: inhibition at 1200 g/ha (Lindernia pyxidaria) | inhibition at 1200 g/ha (Amaranthus viridis) | inhibition at 1200 g/ha (Chenopodium album) | inhibition at 1200 g/ha (Digitaria ciliaris [1]) | inhibition at 1200 g/ha (Echinochloa crus-galli [2]) | inhibition at 1200 g/ha (Echinochloa crus-galli [3]) | inhibition at 75 g/ha [4] | inhibition at 75 g/ha [5] | inhibition at 75 g/ha (Monochoria vaginalis) | inhibition at 75 g/ha (Scirpus juncoides) | inhibition at 75 g/ha (Digitaria ciliaris [6]) | inhibition at 75 g/ha (Echinochloa crus-galli [7])

C#CCO[C@@H]1C[C@]2(C)O[C@@]1(C(C)C)C[C@H]2OCc1ccccc1F [1-931, (1S,2R,4R,5R)-2-[(2-fluorophenyl)methoxy]-1-methyl-4-isopropyl-5-prop-2-ynoxy-7-oxabicyclo[2.2.1]heptane]
≥ 80%: inhibition at 1200 g/ha (Lindernia pyxidaria) | inhibition at 1200 g/ha (Amaranthus viridis) | inhibition at 1200 g/ha (Chenopodium album) | inhibition at 1200 g/ha (Digitaria ciliaris [1]) | inhibition at 1200 g/ha (Echinochloa crus-galli [2]) | inhibition at 1200 g/ha (Echinochloa crus-galli [3]) | inhibition at 75 g/ha [4] | inhibition at 75 g/ha [5] | inhibition at 75 g/ha (Monochoria vaginalis) | inhibition at 75 g/ha (Scirpus juncoides) | inhibition at 75 g/ha (Digitaria ciliaris [6]) | inhibition at 75 g/ha (Echinochloa crus-galli [7])

C=C1C[C@]2(C)O[C@@]1(C(C)C)C[C@H]2OCc1ccccc1C [2-72, (1R,4S,5R)-1-isopropyl-4-methyl-5-((2-methylbenzyl)oxy)-2-methylene-7-oxabicyclo[2.2.1]heptane]
≥ 80%: inhibition at 1200 g/ha (Lindernia pyxidaria) | inhibition at 1200 g/ha (Amaranthus viridis) | inhibition at 1200 g/ha (Chenopodium album) | inhibition at 1200 g/ha (Digitaria ciliaris [1]) | inhibition at 1200 g/ha (Echinochloa crus-galli [2]) | inhibition at 1200 g/ha (Echinochloa crus-galli [3]) | inhibition at 75 g/ha [4] | inhibition at 75 g/ha [5] | inhibition at 75 g/ha (Monochoria vaginalis) | inhibition at 75 g/ha (Scirpus juncoides) | inhibition at 75 g/ha (Digitaria ciliaris [6]) | inhibition at 75 g/ha (Echinochloa crus-galli [7])

CC(C)[C@]12C[C@@H](OCc3ccccc3F)[C@](C)(CC1OCC1CC1)O2 (mixture of isomers) [1-921, (1S,2R,4R,SR)-5-(cyclopropylmethoxy)-2-[(2-fluorophenyl)methoxy]-1-methyl-4-isopropyl-7-oxabicyclo[2.2.1]heptane]
≥ 80%: inhibition at 1200 g/ha (Lindernia pyxidaria) | inhibition at 1200 g/ha (Amaranthus viridis) | inhibition at 1200 g/ha (Chenopodium album) | inhibition at 1200 g/ha (Digitaria ciliaris [1]) | inhibition at 1200 g/ha (Echinochloa crus-galli [2]) | inhibition at 1200 g/ha (Echinochloa crus-galli [3]) | inhibition at 75 g/ha [4] | inhibition at 75 g/ha [5] | inhibition at 75 g/ha (Monochoria vaginalis) | inhibition at 75 g/ha (Scirpus juncoides) | inhibition at 75 g/ha (Digitaria ciliaris [6]) | inhibition at 75 g/ha (Echinochloa crus-galli [7])
